Experimental data published in patent US20090170810A1, “METHODS OF TREATMENT OF CARDIOVASCULAR AND CEREBROVASCULAR DISEASES WITH LOW MOLECULAR WEIGHT FUCOIDAN” (Beijing Century Biocom Pharmaceutical Technology Co. Ltd., priority 2006, published 2009).

What was measured:
decapitated mice [1] = assay: Breathing time and breathing frequency in decapitated mice; format: in vivo, ICR mice; conditions: 2 mg/kg, tail i.v., decapitated 15 minutes after administration
Description: (§1) ICR mice (equally divided between male and female) were divided randomly in a blank control group, a positive control group and dosage groups of sample A (200, 100, and 50 mg/kg) and sample B (400, 200, 100, 50 mg/kg). The mice in medical groups were administrated by tail intravenous injection, and the dosage was […]. The positive control group was administrated nimodipine (2 mg/kg) by tail intravenous injection. The model group was administrated normal salt. At 15 minutes after administration, the mice were decapitated by a pair of scissors. The mouth breathing time, breathing frequency and brain water content were recorded and compared with other groups.

decapitated mice [2] = assay: Brain index and brain water content in decapitated mice; format: in vivo, ICR mice; conditions: 2 mg/kg
Description: as §1
Measurement of brain water content: whole brains were collected, after the wet weight was obtained, they were dried in an oven at 100° C. for 24 hours, the average value was taken to calculate brain water content: brain water content(%)=[…]. Brain index: brain index=brain wet weight (g)/body weight (g)×100%.

brain of ischemic mice = assay: Cerebral ischemia in mice with common carotid artery ligation and reperfusion (brain LDH, SOD); format: in vivo; conditions: 2 mg/kg
Description: Experimental grouping: a control group and a model group (respectively administrating an equal volume of normal salt), a positive control group (nimodipine, 2 mg/kg), sample A groups (200, 100, and 50 mg/kg), and sample B groups (200, 100, and 50 mg/kg), the injection dosage being […].
Animal model setup: the grouped mice were respectively administrated test substance, nimodipine or normal salt by tail intravenous injection. After 15 minutes, the mice were anesthetized with 3.5% chloral hydrate, fixed in the back. The right and left common carotid artery and vagus nerve were exposed, and 4-0 suture was inserted under the bilateral carotid arteries. The line was tightened to block blood flow for 5 minutes. Then the line was loosened to make the blood reperfusion for 10 minutes. The operation was repeated three times, and an ischemia-reperfusion model in mice was established. After the last reperfusion, the mice were decapitated and brain collected. In the control group, only the bilateral carotid arteries were exposed, without line being inserted.

COCCOC(=O)C1=C(C)NC(C)=C(C(=O)OC(C)C)C1c1cccc([N+](=O)[O-])c1 (stereo not drawn) [Nimodipine, nimodipine]
Breathing frequency (times) (decapitated mice [1]): 17.0 ± 3.2 times | Breathing time (decapitated mice [1]): 23.8 ± 3.2 s | Brain index (%) (decapitated mice [2]): 1.40 ± 0.14 % | Brain water content (%) (decapitated mice [2]): 75.1 ± 0.9 % | LDH (U/mg) (brain of ischemic mice): 11.3 ± 6.6 U/mg | SOD (U/mg) (brain of ischemic mice): 144.77 ± 21.61 U/mg
